Values of other authors as cited in patent publication US8444622B2, “Device, system, and method for targeted delivery of anti-inflammatory medicaments to a mammalian subject” (The Invention Science Fund I, LLC, priority 2009, dated 2013).

elimination from synovial fluid (appreciable drug concentrations may still be measurable after 24 hours): slow
time to steady-state in synovial fluid (once daily dosing of naproxen sodium): within a week
predicted accumulation ratio based on trough concentration (synovial fluid, once daily dosing of naproxen sodium): 2.4
SMILES: COc1ccc2cc([C@H](C)C(=O)O)ccc2c1 [naproxen]
